For 84 compounds, LC retention time results are on record in the RepoRT retention time repository.

The nature of this data set: Agilent ZORBAX 300 SB-C18, 150 × 1 mm, 3.5 µm; A: water + 0.01% heptafluorobutyric acid; B: acetonitrile + 0.01% heptafluorobutyric acid; gradient (min/%B) 0/0 100/90. The note with it: stereoisomer not certain.
Consider `COc1ccc(C2CC(=O)Nc3cc4c(cc32)OCO4)cc1` (centres undefined), for which the LC retention time stood at 11.9 min.

For the compound `S=C1NC2(CCCCC2)NN1c1ccccc1`, the LC retention time was 13.2 min.

Take `C1CCNCC1`: the LC retention time worked out at 6.6 min.

For `C=Cn1ccnc1`, the LC retention time came out at 6.3 min.

For `Cc1ccc(N2C3=C(C(=O)CC(C)(C)C3)C(c3ccccc3)C3=C2c2ccccc2C3=O)cc1` (centres undefined), the LC retention time was found to be 18.4 min.

With `CNCCOc1ccccc1`, the LC retention time was 8.08 min.

Take `Cc1cc(C)n(CCO)c(=O)n1`: the LC retention time was found to be 5.92 min.

On to `O=C1CC(Nc2ccc3ccccc3c2)C(=O)N1c1cccc2ccccc12` (centres undefined), for which the LC retention time amounted to 15.7 min.

For `CC(C)(N)Cc1ccccc1`, the LC retention time is 8.82 min.

Regarding `COc1ccc2c(=O)cc(-c3ccccc3)oc2c1OC`, the LC retention time was found to be 13.7 min.

In the case of `CCN1C(=O)C2C(C)NC3(C(=O)Nc4ccccc43)C2C1=O` (centres undefined), the LC retention time worked out at 8.61 min.

Take `CCCCCCCCCCN(C)C`: the LC retention time was determined as 12 min.

On to `CCC(C)C(N)C(=O)N1CCCC1C(=O)NC(C(=O)O)C(C)CC` (centres undefined), for which the LC retention time came out at 8.56 min.

With `CNCc1cccs1`, the LC retention time is 7 min.

On to `Cc1ccc(C(C)C)c(OCCN)c1`, for which the LC retention time is 10.2 min.

Turning to `CC(C)CCCC(C)N` (centres undefined), the LC retention time worked out at 9.28 min.

As for `Cc1cc(C(=O)O)c2ccccc2n1`, the LC retention time turned out to be 5.51 min.

On to `CN(c1ccccc1)c1ccc(C=C2CCc3ccccc3C2=O)cc1`, for which the LC retention time stood at 20.3 min.

`COc1ccc(-c2cnc3ccccc3n2)cc1`: the LC retention time was 14.7 min.

Consider `O=C(O)Cc1c(C(=O)O)[nH]c2ccc(C(=O)O)cc12`, for which the LC retention time came out at 7.21 min.

Consider `CC(C)(C)c1ccc(C2Nc3ccccc3C(=O)N2c2ccccc2)cc1` (centres undefined), for which the LC retention time was 16.7 min.

For the compound `CC1Cc2ccccc2N1C(=O)CN1CCN(C)CC1` (centres undefined), the LC retention time was 8.74 min.

With `CC(=O)c1c[nH]c2ccccc12`, the LC retention time is 9.25 min.

Turning to `c1ccc(Nc2nc(-c3ccccc3)nc3ccccc23)cc1`, the LC retention time worked out at 11.9 min.

Take `C=CCNCC=C`: the LC retention time is 7.07 min.

Turning to `CNC(=S)NNC(C)=O`, the LC retention time stood at 2.17 min.

Turning to `Cc1ccccc1C=NNC(=O)C(O)(c1ccccc1)c1ccccc1`, the LC retention time was 14.5 min.

In the case of `CC(=O)N1CCC(C2CCNCC2)CC1`, the LC retention time was determined as 7 min.

As for `Cc1cc(C)nc(NC(N)=NCc2cccnc2)n1`, the LC retention time amounted to 7.87 min.

`CC(C)(C)NCCNC(C)(C)C`: the LC retention time was 7.46 min.

On to `CC(C)NCC(O)COc1ccc(COCCOC(C)C)cc1` (centres undefined), for which the LC retention time is 10 min.

`CCCc1cc(C(N)=O)ccn1`: the LC retention time was determined as 7.11 min.

On to `Cc1ccccc1N(C)C`, for which the LC retention time was 7.62 min.

For `Cc1ccc(N)cc1N`, the LC retention time stood at 6.85 min.

As to `Cc1ccc(-n2c(O)c(C=Nc3ccc(O)cc3C)c(=O)[nH]c2=O)cc1`, the LC retention time amounted to 10.9 min.

As to `S=C1N=C2CCCCC2C2(CCCCC2)N1` (centres undefined), the LC retention time was 11.6 min.

With `Nc1ccc(CN2CCCC2)cc1`, the LC retention time is 7.04 min.

As to `Cn1nc(-c2ccccc2)c(-c2ccccc2)c(C(=O)O)c1=O`, the LC retention time amounted to 11.2 min.

In the case of `NC(=O)Cc1ccc(O)cc1`, the LC retention time was 5.97 min.

Take `COc1ccc(C(=O)C=Cc2ccccc2)cc1`: the LC retention time amounted to 15.7 min.

As to `CCn1cc(-c2ccn[nH]2)cn1`, the LC retention time came out at 7.93 min.

`Nc1cccnc1`: the LC retention time came to 5.54 min.

On to `O=C(CNc1ccc2ccccc2c1)NN=Cc1ccccc1`, for which the LC retention time worked out at 14.8 min.

Consider `Cc1ccc(C=C2CN(C)CC(=Cc3ccc(C)cc3C)C2=O)c(C)c1`, for which the LC retention time came out at 13.1 min.

Take `CC(Cc1ccccc1)N(C)Cc1ccccc1` (centres undefined): the LC retention time amounted to 10.8 min.

For `COc1cc(CCN)cc(OC)c1OC`, the LC retention time was determined as 8.22 min.

Consider `CC(C)c1ccc(C=NNC(N)=S)cc1`, for which the LC retention time turned out to be 12.8 min.

With `Cc1ccc(OCCOCn2c(C)cc(=O)[nH]c2=O)cc1`, the LC retention time worked out at 11 min.

As for `CCOC(=O)C1CCC(=O)N1` (centres undefined), the LC retention time worked out at 6.88 min.

Regarding `CNCc1ccccc1`, the LC retention time came out at 7.43 min.

As for `CNCc1cccc(C)c1`, the LC retention time is 8.02 min.

Consider `Cc1cccc(C=NNC(=O)c2cc3ccccc3cc2O)c1`, for which the LC retention time is 14.9 min.

As for `Cc1ccc(C=CC(=O)c2ccccc2O)cc1`, the LC retention time amounted to 16.1 min.

As to `C=Cc1ccc(CN(C)C)cc1`, the LC retention time amounted to 8.6 min.

On to `O=C(O)CC(CNC(=O)CCCCCN1C(=O)c2ccccc2C1=O)c1ccccc1` (centres undefined), for which the LC retention time came to 11.6 min.

`CCCCCCC1(C)OCOC1=CC[N+](C)(C)C` (centres undefined): the LC retention time came to 10.8 min.

`Cc1ccc(NC(=O)Cn2c(=O)c3c(C)cc(C)nc3n(-c3ccccc3)c2=O)c(C)c1`: the LC retention time came out at 15.2 min.

Turning to `CCCCCCCNC(=O)c1ccc(OC(C)=O)cc1`, the LC retention time worked out at 14.9 min.

For `O=CN1CCCCC1`, the LC retention time came to 7.47 min.

Take `Cn1c(=O)n(C)c2cc(N)ccc21`: the LC retention time came out at 6.8 min.

For the compound `Cc1ccccc1C=NNC(N)=S`, the LC retention time came to 10.7 min.

Consider `NC1CCNCC1`, for which the LC retention time was found to be 6.22 min.

On to `O=C(NN=Cc1cccnc1)c1ccccn1`, for which the LC retention time is 7.9 min.

As to `Cc1ccc(CN2C(=O)CCC2=O)o1`, the LC retention time is 9.52 min.

`COc1ccc(OC)c(NC(=O)Cn2c(=O)n(C)c(=O)n(C)c2=O)c1`: the LC retention time was 10.7 min.

For the compound `CC(=O)c1cc2ccccc2oc1=O`, the LC retention time was determined as 10.8 min.

For the compound `CCCCCCCCN(CCCCCCCC)CCCCCCCC`, the LC retention time was 19.5 min.

With `CCCCSCCSC(=N)N`, the LC retention time was determined as 9.27 min.

For the compound `c1ccc(N2CCN(c3ccccc3)C2c2cccnc2)cc1`, the LC retention time came to 13 min.

As for `Cc1cccc(N)c1N`, the LC retention time came to 7.32 min.

In the case of `Cc1nn(CC(=O)NCc2ccccn2)c(=O)c2ccccc12`, the LC retention time is 8.37 min.

As to `CN(C)Cc1c[nH]c2ccccc12`, the LC retention time is 7.66 min.

Regarding `CCCCCCCCCC[N+](C)(C)C`, the LC retention time is 12.3 min.

On to `CCCC(N)=O`, for which the LC retention time amounted to 4.71 min.

Regarding `COc1ccc2occ(C(=O)c3ccccc3C)c(=O)c2c1`, the LC retention time came out at 14.2 min.

`O=C1NC2CCCCC2NC1CC(=O)N1CCN(Cc2ccccc2)CC1` (centres undefined): the LC retention time was determined as 7.88 min.

`O=C1NCCN1C(=O)c1ccco1`: the LC retention time amounted to 6.67 min.

`Cc1c(-c2nc3ccccc3[nH]2)cnn1C`: the LC retention time came to 8.16 min.

Regarding `c1ccc(-c2ccc3ccccc3n2)nc1`, the LC retention time amounted to 11.3 min.

On to `CC(C)c1ccccc1NC(=O)CN`, for which the LC retention time amounted to 8.61 min.

In the case of `CCCCCCCCC(N)=O`, the LC retention time stood at 12.4 min.

On to `c1ccc(-n2cnnn2)cc1`, for which the LC retention time came out at 9.44 min.

Consider `Cc1cc(C)nc(C)c1`, for which the LC retention time turned out to be 7.46 min.

Take `O=S(=O)(O)CCCN1CCOCC1`: the LC retention time was 1.67 min.
